Measured values reported in PubChem BioAssay (NCI).
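Exposure lasted 48 hours, with cells grown in 96-well plates and compounds tested at five concentrations. GI50 is the concentration that inhibits growth by half. TGI denotes the concentration required for complete inhibition of growth.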 Where a SMILES comes first, the peptide text is derived from it. The star is where a group is joined. Boc = CC(C)(C)OC(=O)*; OtBu = CC(C)(C)O*

Assays:
Test in all cases: DTP human tumour cell line panel, 48 h
[1] = system: M14 melanoma
[2] = system: HS 578T breast
[3] = system: NCI-H23 lung
[4] = system: ACHN renal
[5] = system: OVCAR-4 ovarian
[6] = system: CCRF-CEM leukemia

SMILES | TGI [1] | TGI [2] | TGI [3] | TGI [4] | TGI [5] | TGI [6] | GI50 [1] | GI50 [4] | GI50 [5] | GI50 [6]
CC(=O)OC1=C(c2ccccc2)S(=O)(=O)c2ccccc21 | > 100 µM | > 100 µM | > 100 µM | > 100 µM | > 100 µM | > 100 µM |  |  |  | 
CCc1c(N=[N+]=[N-])c2ccccc2oc1=O | > 100 µM | > 100 µM | > 100 µM | > 100 µM | > 100 µM | > 100 µM |  |  |  | 
CC(C)CCNC(=O)c1ccc(CNC(=O)/C=C/c2ccc3c(c2)-c2ccccc2C3)cc1 | > 100 µM | > 100 µM | > 100 µM | > 100 µM | 80.1 µM | > 100 µM |  |  |  | 
C[N+](C)(C)CC(=O)N/N=C\c1c(O)ccc2ccccc12 | > 100 µM | 56.5 µM | > 100 µM | > 100 µM | > 100 µM | 76.1 µM |  |  |  | 
O=C(O)CN1CCN2CCOCCN(CC1)CCN(CC(=O)O)CC2 | > 100 µM | > 100 µM | > 100 µM | > 100 µM | > 100 µM | > 100 µM |  |  |  | 
CCO/C=N\C1=C(C#N)SC2=N/C(=C\c3ccco3)C(=O)N21 | > 100 µM | > 100 µM | > 100 µM | > 100 µM | > 100 µM | > 100 µM |  |  |  | 
COc1ccc(N(c2ccc(C#N)cc2)c2ccc(C#N)cc2)cc1 | > 100 µM | > 100 µM | > 100 µM | > 100 µM | > 100 µM | > 100 µM |  |  |  | 
O[C@@H]1CCCCN1Cc1cc2cc3c(cc2c2cc(OCc4ccccc4)ccc12)OCO3 | 2.96 µM |  |  | 2.79 µM | 2.9 µM | 4.61 µM | 1590 nM | 1470 nM | 1450 nM | 176 nM
C=C1C(=O)O[C@H]2[C@@H]3O[C@@](C)(CC/C=C(\C)CCC[C@@H]2C)[C@H](O)C[C@@H]13 | 5.86 µM | 25.9 µM | 2.96 µM | 6.25 µM | 34.8 µM | 81.5 µM |  |  |  | 
CC(C)C1CC(CO)(CNc2nc(N)nc(Cl)c2C=O)C1 (centres undefined) | 3.24 µM | 31.3 µM | 4.64 µM | 22.8 µM | 10.9 µM | 6.36 µM |  |  |  | 
O=C(NNC(=O)c1cc2ccccc2[nH]1)c1cc2ccccc2[nH]1 | > 100 µM | > 100 µM |  |  | > 100 µM | > 100 µM |  |  |  | 
NCCCc1nonc1C(=O)O | > 100 µM | > 100 µM | > 100 µM | > 100 µM | > 100 µM | > 100 µM |  |  |  | 
O=[N+]([O-])C1=Cc2c(O)ccc(O)c2C2c3ccccc3NC12 (centres undefined) | 28.2 µM | > 57 µM | 15.8 µM | 16 µM | 30.1 µM | > 22.7 µM |  |  |  | 
COC(=O)c1nc2n(n1)-c1ccccc1C(=O)N(Cc1ccccc1)C2 | > 100 µM | > 100 µM | > 100 µM | > 100 µM | > 100 µM | > 100 µM |  |  |  | 
Nc1nc(NCc2ccccc2)cc(NCc2ccccc2)n1 | 39.5 µM | 13.4 µM | 20 µM | 28.1 µM | 28.3 µM | > 100 µM |  |  |  | 
COc1ccc(CC(COS(=O)(=O)c2ccc(C)cc2)NS(=O)(=O)c2ccc(C)cc2)cc1 (centres undefined) | 29.6 µM | 58.8 µM | 40.8 µM | 49.2 µM | 41.9 µM |  |  |  |  | 
CC(C)(C)OC(=O)CC(NC(=O)OC(C)(C)C)C(=O)NC(Cc1ccccc1)C(N)=O (centres undefined) (Boc-Asp(OtBu)-Phe-NH2; configuration not given here) | > 100 µM | > 100 µM | > 100 µM | > 100 µM | > 100 µM | > 100 µM |  |  |  | 
COc1ccc(C2OC2C(=O)C23CC4CC(CC(C4)C2)C3)cc1 (centres undefined) | > 100 µM | 50.4 µM | > 100 µM | > 100 µM | > 100 µM | > 100 µM |  |  |  | 
O=[N+]([O-])c1cccc(-c2ccc([C@H]3CC(c4ccc(Cl)cc4)=NN3)o2)c1 | > 100 µM | > 100 µM |  | 34.4 µM | 68.6 µM | 90.8 µM |  |  |  | 
CCOC(=O)c1c2ccccc2n2c(=O)n(-c3ccccc3)nnc12 | > 100 µM | > 100 µM | > 100 µM | > 100 µM | > 100 µM | > 69.5 µM |  |  |  | 
CCOc1cc(NC(C)=O)ccc1C(=O)NN1C(=O)/C(=C/c2ccc(Cl)cc2)N=C1c1ccccc1 | > 100 µM |  | > 100 µM | > 100 µM | > 100 µM | 93 µM |  |  |  | 
COCc1nc(C#N)c(N)o1 | > 10 µM | > 10 µM | > 10 µM | > 10 µM | > 10 µM | > 10 µM |  |  |  | 
COc1ccccc1Nc1nc(N)nc(N)c1N | > 100 µM | > 100 µM | > 100 µM | > 100 µM | > 100 µM | 50.8 µM |  |  |  | 
Cc1c(S(=O)(=O)/N=C(\NO)Nc2ccc(Cl)cc2)sc2ccc(Cl)cc12 | 31.2 µM | 44.3 µM | 33.6 µM | 28.5 µM | 38.3 µM | > 100 µM |  |  |  | 
O=C1/C(=C/c2ccc(Cl)cc2)NC(=S)N1CN1CCCCC1 | > 100 µM | 62 µM | > 100 µM | > 100 µM |  | 78.2 µM |  |  |  | 
CC(=O)OCC1OC(Sc2nc(-c3ccccc3)c(C#N)c(=O)n2C2OC(COC(C)=O)C(OC(C)=O)C(OC(C)=O)C2OC(C)=O)C(OC(C)=O)C(OC(C)=O)C1OC(C)=O (centres undefined) | > 100 µM | > 100 µM | > 100 µM | > 100 µM |  |  |  |  |  | 
CC12CCC(C(=Nc3ccc([N+](=O)[O-])cc3)C1=O)C2(C)C (centres undefined) | > 100 µM |  | 99.5 µM | > 100 µM | 69.8 µM |  |  |  |  | 
COC(=O)c1c(O)ccc2c1c1c(n2CCc2ccccc2)C(=O)c2ccccc2C1 | 55.2 µM | > 100 µM | 74.1 µM |  | 41.4 µM | 60.6 µM |  |  |  | 
CC(C)=CCN1c2ccccc2[C@@]2(CC=C(C)C)CCN(C)[C@@H]12 |  | 45.8 µM | > 100 µM | > 100 µM | > 100 µM | > 100 µM |  |  |  | 
CN(C)CCC(C#N)(c1ccccc1)c1ccccc1 | 50 µM | > 100 µM | > 100 µM | > 100 µM | > 100 µM |  |  |  |  | 
